# Measurements: PMC10216478, “Development of a Non-Peptide Angiotensin II Type 1 Receptor Ligand by Structural Modification of Olmesartan as a Biased Agonist” (Biomedicines, 2023)
# Positions count from the first letter of the chain named.
# Legend:
# AT1 Q257A receptor = target: T1, AT1 Q257A receptor (Rattus norvegicus, UniProt P25095, Q257A); experiment: Competition binding study, 125I-[Sar1,Ile8]Ang II, AT1 Q257A receptor; conditions: competition with 125I-[Sar1,Ile8]Ang II, n = 3, mean ± standard error, read-out: Binding affinity (Kd)
# T1 construct: expressed in transfected cells; host or cells: COS7
# T1 sequence (P25095 1-359 Q257A): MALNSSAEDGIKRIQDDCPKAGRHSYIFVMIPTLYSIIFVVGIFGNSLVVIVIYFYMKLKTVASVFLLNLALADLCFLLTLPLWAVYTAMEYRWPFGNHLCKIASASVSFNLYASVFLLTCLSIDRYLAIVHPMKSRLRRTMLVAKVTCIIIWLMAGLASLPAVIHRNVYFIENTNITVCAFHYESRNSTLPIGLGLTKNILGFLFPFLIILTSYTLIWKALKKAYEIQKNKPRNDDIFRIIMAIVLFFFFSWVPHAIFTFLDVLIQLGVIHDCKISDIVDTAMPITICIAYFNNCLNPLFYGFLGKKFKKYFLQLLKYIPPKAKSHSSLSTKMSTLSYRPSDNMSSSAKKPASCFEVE
# Source text: (§1) We mutated four amino acids in transmembrane (TM) III, VI, and VII in the AT1 receptor (L112A, Q257A, Y292A, and N295A receptors). We determined the mutation sites of the AT1 receptor according to ARB, which produced olmesartan derivatives with different interactions and functions toward the AT1 receptor, as previously reported by Zhang et al., since the additional 4-hydroxybenzyl groups of R781253 and R794847 were predicted to extend to a sub-pocket on the bottom of the AT1 receptor ligand-binding pocket consisting of Leu^112 and Gln^257. In addition, since the biased ligand TRV027 induced changes near the NPxxY motif in TM domain 7 that are related to receptor activation, Tyr^292 and Asn^295 in the AT1 receptor were mutated.
# The synthetic rat AT1 receptor gene, which was cloned in the shuttle expression vector pMT-2, was used for expression and mutagenesis, as described previously. COS7 cells (No. CRL-1651, ATCC, Manassas, VA, USA) were cultured in 10% fetal bovine serum (FBS) and penicillin- and streptomycin-supplemented Dulbecco’s modified Eagle’s essential medium (PS-DMEM) in 5% CO2 at 37 °C. In the experiments, cells were grown without a cell-growth supplement. To express the AT1 receptor protein, 10 µg of purified plasmid DNA per 10^7 cells was used in the transfection. Wild-type and mutated AT1 receptors were transiently transfected into cells using Lipofectamine 2000 liposomal reagent (Roche Applied Science, Penzberg, Germany). Cells were plated and grown and were 70–90% confluent at the time of transfection. We incubated plasmid DNA (10 µg)–lipid (10 µL) complexes for 5 min at room temperature and added and incubated the complexes with cells for 24 h. We then analyzed the parameters in transfected cells. Cell viability was >95% according to trypan blue exclusion analysis in the control experiments. Transfected cells that had been cultured for 48–72 h were harvested. Cell membranes were prepared using the nitrogen Parr bomb disruption or freeze–thaw methods.
# The Kd (nM) values of receptor binding were determined with ^125I-[Sar^1, Ile^8]AngII-binding experiments under equilibrium conditions. Binding kinetics were determined following the methods described in the literature. We carried out binding by using ^125I-[Sar^1, Ile^8] AngII (2200 Ci/mmol) and an increasing concentration (10^−11–10^−5 M) of each unlabeled compound. Nonspecific binding of ^125I-[Sar^1, Ile^8] Ang II was determined in the presence of a high concentration (10^−6 M) of unlabeled [Sar^1, Ile^8]. Next, the incubation mixture was separated by vacuum filtration through Whatman GF/C glass filters (Disposable Filter Funnels Grade GF/C, GE Healthcare), and presoaked with 0.1% polyethylenimine. The filter was washed with 3 mL of ice-cold stop buffer (25 mM Tris–HCl, pH 7.4, 1 mM MgCl2). The radioactivity trapped on the filters was quantified using an automatic γ-counter. The percentage (%) of specific binding of ^125I-[Sar^1, Ile^8]Ang II was calculated using the following formula: 100 × (% total binding of ^125I-[Sar^1, Ile^8]Ang II—nonspecific binding of ^125I-[Sar^1, Ile^8]Ang II)/(% total binding of ^125I-[Sar^1, Ile^8]Ang II).
# AT1 L112A receptor = target: T2, AT1 L112A receptor (Rattus norvegicus, UniProt P25095, L112A); experiment: Competition binding study, 125I-[Sar1,Ile8]Ang II, AT1 L112A receptor; conditions: competition with 125I-[Sar1,Ile8]Ang II, n = 3, mean ± standard error, read-out: Binding affinity (Kd)
# T2 construct: expressed in transfected cells; host or cells: COS7
# T2 sequence (P25095 1-359 L112A): T1 sequence (P25095 1-359 Q257A) with L112A, A257Q
# Source text: as §1
# The synthetic rat AT1 receptor gene, which was cloned in the shuttle expression vector pMT-2, was used for expression and mutagenesis, as described previously. COS7 cells (No. CRL-1651, ATCC, Manassas, VA, USA) were cultured in 10% fetal bovine serum (FBS) and penicillin- and streptomycin-supplemented Dulbecco’s modified Eagle’s essential medium (PS-DMEM) in 5% CO2 at 37 °C. In the experiments, cells were grown without a cell-growth supplement. To express the AT1 receptor protein, 10 µg of purified plasmid DNA per 10^7 cells was used in the transfection. […] We then analyzed the parameters in transfected cells. […]
# The Kd (nM) values of receptor binding were determined with ^125I-[Sar^1, Ile^8]AngII-binding experiments under equilibrium conditions. Binding kinetics were determined following the methods described in the literature. […] Ang II was determined in the presence of a high concentration (10^−6 M) of unlabeled [Sar^1, Ile^8]. […] The radioactivity trapped on the filters was quantified using an automatic γ-counter. The percentage (%) of specific binding of ^125I-[Sar^1, Ile^8]Ang II was calculated using the following formula: 100 × (% total binding of ^125I-[Sar^1, Ile^8]Ang II—nonspecific binding of ^125I-[Sar^1, Ile^8]Ang II)/(% total binding of ^125I-[Sar^1, Ile^8]Ang II).
SMILES,Kd (AT1 Q257A receptor),Kd (AT1 L112A receptor)
CCCc1nc(C(C)(C)O)c(C(N)=O)n1Cc1ccc(-c2cc(Cc3ccc(O)cc3)ccc2-c2nnn[nH]2)cc1 [R794847],2.7 ± 0.8 nM,–
CCCc1nc(C(C)(C)O)c(C(=O)O)n1Cc1ccc(-c2cc(Cc3ccc(O)cc3)ccc2-c2nnn[nH]2)cc1 [R781253],14 ± 6 nM,23 ± 7 nM
CCCc1nc(C(C)(C)O)c(C(N)=O)n1Cc1ccc(-c2ccccc2-c2nnn[nH]2)cc1 [R239470],20 ± 2 nM,37 ± 12 nM
"CCCc1nc(C(C)(C)O)c(C(=O)O)n1Cc1ccc(-c2ccccc2-c2nnn[nH]2)cc1 [Olmesartan, olmesartan]",228 ± 38 nM,–
